According to US20220133738A1, “GENOTYPE AND DOSE-DEPENDENT RESPONSE TO AN ASBTI IN PATIENTS WITH BILE SALT EXPORT PUMP DEFICIENCY” (MIRUM PHARMACEUTICALS, INC., priority 2019, published 2022):

Tested on: overweight and obese adults
Assay: Dose-ranging phase 1 clinical study (NCT02475317): fecal bile acid excretion with maralixibat and volixibat
Assay type: in vivo, human
Settings: for fBA excretion, mean change from baseline: baseline to day 6 and 7

## CCCC[C@]1(CC)CS(=O)(=O)c2ccc(N(C)C)cc2[C@@H](c2cccc(NC(=O)N[C@@H]3O[C@H](COS(=O)(=O)O)[C@@H](O)[C@H](OCc4ccccc4)[C@H]3O)c2)[C@H]1O [volixibat]
10 mg dose (QD), 7 days
  fBA excretion, mean change from baseline: 744 µmol
20 mg dose (QD), 7 days
  fBA excretion, mean change from baseline: 874 µmol
Across tested doses, 7 days
  fBA excretion, dose dependence: increased in a dose-dependent manner
All doses, 7 days
  treatment-emergent adverse events: mild, and none were serious
Baseline to day 7, greatest change at maralixibat 50 mg BID
  Mean serum 7αC4: increased
Day 7 versus baseline
  Mean sBA levels: not elevated
